Values of other authors, collected in patent US10383918B2, “Compositions in the form of an injectable aqueous solution comprising human glucagon and a statistical co-polyamino acid” (ADOCIA, priority 2016, dated 2019).

Conditions: lyophilizate reconstituted at acidic pH (pH<3)

Q: Which “Time to appearance of human glucagon fibrils after the reconstitution” value does the source give for “H-His-Ser-Gln-Gly-Thr-Phe-Thr-Ser-Asp-Tyr-Ser-Lys-Tyr-Leu-Asp-Ser-Arg-Arg-Ala-Gn-Asp-Phe-Val-Gn-Trp-Leu-Met-Asn-Thr-OH [human glucagon]” here?
A: ≤ 24 h
